Assay results published in patent publication US6071945A, “8H-thieno-[2,3-b]pyrrolizin-8-one compounds” (Adir et Compagnie, priority 1998, dated 2000).

How the values were obtained:
[1] = system: L1210 cells; experiment: Action on the cell cycle; format: cell-based, murine; conditions: 500 nM, 21 hours, 37° C.; control: 20%
Procedure: L1210 cells are incubated for 21 hours at 37° C. in the presence of different concentrations of the products being tested. The cells are then fixed using 70% (v/v) ethanol, washed twice in PBS and incubated for 30 minutes at 20° C. in PBS containing 100 μg/ml of RNase and 50 μg/ml of propidium iodide. The results are expressed as the percentage of cells that have accumulated in the G2+M phase after 21 hours, compared to the control (control: 20%). At a concentration of 500 nM, the compound of Example 8 causes 80-90% of the cells to accumulate in the G2+M phase after 21 hours.

[2] = system: L1210 murine leukaemia cells; experiment: In vitro cytotoxicity (Microculture Tetrazolium Assay), L1210; format: cell-based; conditions: Mus musculus, 48 h; L1210, 2 days incubation; read-out: IC50, concentration that inhibits the proliferation of the treated cells by 50%
Procedure: (§1) Six cell lines were used:
(§2) The cells are cultured in RPMI 1640 complete culture medium containing 10% fetal calf serum, 2 mM glutamine, 50 units/ml of penicillin, 50 μg/ml of streptomycin and 10 mM Hepes, pH=7.4. The cells are distributed on microtitre plates and exposed to the cytotoxic compounds. The cells are then incubated for 2 days (P388, L1210) or 4 days (A549, KB-A1, KB-3-1, IGROV1). The number of viable cells is then quantified by means of a calorimetric assay, the Microculture Tetrazolium Assay (Cancer Res. 1987, 47, 939-942).
(§3) The results are expressed as IC50, the concentration of cytotoxic agent that inhibits the proliferation of the treated cells by 50%.

[3] = system: KB-A1 multi-drug resistant (adriamycin) human epidermoid carcinoma cells; experiment: In vitro cytotoxicity (Microculture Tetrazolium Assay), KB-A1; format: cell-based; conditions: 96 h, KB-A1, 4 days incubation, read-out: IC50, concentration that inhibits the proliferation of the treated cells by 50%
Procedure: as §1
(§4) 1 human epidermoid carcinoma, KB-3-1 , and the corresponding resistant line, KB-A 1, the multi-drug, resistance of which was produced using adriamycin (ADR),
as §2, §3

[4] = system: IGROV1 human ovarian carcinoma cells; experiment: In vitro cytotoxicity (Microculture Tetrazolium Assay), IGROV1; format: cell-based; conditions: IGROV-1, 96 h, IGROV1, 4 days incubation, read-out: IC50, concentration that inhibits the proliferation of the treated cells by 50%
Procedure: as §1
1 human ovarian carcinoma, IGROV1.
as §2, §3

[5] = system: cells originating from human solid tumours; experiment: In vitro cytotoxicity, human solid tumour cells compared with murine leukaemias; format: cell-based; conditions: versus P388 and L1210
Procedure: as §1, §2, §3

[6] = system: P388 murine leukaemia cells; experiment: In vitro cytotoxicity (Microculture Tetrazolium Assay), P388; format: cell-based; conditions: Mus musculus, 48 h; P388, 2 days incubation; read-out: IC50, concentration that inhibits the proliferation of the treated cells by 50%
Procedure: as §1, §2, §3

[7] = system: IGROV1 ovarian carcinoma; experiment: In vivo anti-tumour activity on the IGROV1 ovarian carcinoma; parameters: species or system nude BABL/C mice; conditions: 200 mg/kg, intraperitoneal, once per week on days 4, 11 and 18
Procedure: (§5) The anti-tumour activity is expressed as % T/C: [formula]
IGROV1 tumour cells (10^7 cells) were incubated on day 0 in the peritoneal cavity of nude BABL/C mice (groups of 5 animals). The products were administered by the intraperitoneal route once per week on days 4, 11 and 18. The anti-tumour activity is expressed as % T/C as defined hereinbefore. The compound of Example 8 is active at the 200 mg/kg dose and increases the survival of the treated animals by 60% (T/C=160%).

[8] = system: KB-3-1 human epidermoid carcinoma cells; experiment: In vitro cytotoxicity (Microculture Tetrazolium Assay), KB-3-1; format: cell-based; conditions: 96 h, KB-3-1, 4 days incubation, read-out: IC50, concentration that inhibits the proliferation of the treated cells by 50%
Procedure: as §1, §4, §2, §3

[9] = system: P388 leukaemia; experiment: In vivo anti-tumour activity on the P388 leukaemia; parameters: species or system female BDF1 mice; conditions: intraperitoneal, once per day for 4 days (D1-4)
Procedure: Line P388 (murine leukaemia) was supplied by the National Cancer Institute (Frederick, U.S.A.). The tumour cells (10^6 cells) were inoculated on day 0 into the peritoneal cavity of female BDF1 mice (Iffa-Credo, France) weighing from 18 to 20 g (groups of 6 animals). The products were administered by the intraperitoneal route once per day for 4 days (D1-4) at the doses indicated.
as §5

[10] = system: A549 human non-small-cell lung carcinoma cells; experiment: In vitro cytotoxicity (Microculture Tetrazolium Assay), A549; format: cell-based; conditions: 96 h, A549, 4 days incubation, read-out: IC50, concentration that inhibits the proliferation of the treated cells by 50%
Procedure: as §1
1 human non-small-cell lung carcinoma, A549,
as §2, §3

O=C1c2scc(-c3ccc(O)c(O)c3)c2-n2cccc21 [Example 8, 3-(3,4-Dihydroxyphenyl)-8H-thieno[2,3-b]pyrrolizin-8-one]
percentage of cells that have accumulated in the G2+M phase [1]: 80-90%
IC50 [2]: 222 nM
IC50 [3]: 22 nM
IC50 [4]: 56 nM
effect on cells originating from human solid tumours compared with the two murine leukaemias [5]: more potent effect on the cells originating from human solid tumours than on the two murine leukaemias
IC50 [6]: 356 nM
T/C [7]: 160%
increase in survival of the treated animals [7]: 60%
IC50 [8]: 33 nM
minimal effective dose ([9]; Mus musculus, P388, ip, read-out: dose from which the compound is active): ≥ 25 mg/kg
increase in survival of the treated animals ([9]; active from the 25 mg/kg dose): 70%
IC50 [10]: 122 nM
